In patent US10532985B2, “Heterocycle and carbocycle derivatives having TRKA inhibitory activity” (Shionogi & Co., Ltd., priority 2014, dated 2020):

biological target: T1, human TrkA (Homo sapiens, UniProt P04629); assay: Test Example 2-2: Human TrkA Inhibition Assay; format: biochemical; conditions: class symbols, read-out: IC50_nM
T1 construct: purchased Lifetechnologies PV3144
Description: Seven point five μL per well of human TrkA (PV3144, Lifetechnologies, final concentration: 1 nmol/L) suspended in the assay buffer (100 mmol/L 4-(2-hydroxyethyl)-1-piperazineethanesulfonic acid (HEPES), 10 mmol/L magnesium chloride, 0.003 vol % Brij-35, 0.004 vol % Tween20 and 1 mmol/L dithiothreitol (DTT)) was applied in a 384 well plate and the plate was pre-incubated for 15 min at room temperature with 0.4 μL of each compound (final concentration: […]) dissolved in DMSO. Then, fluorescent substrate (FL-peptide 27, 760424, PerkinElmer, final concentration: 1.5 μmol/L) and ATP (final concentration […]) dissolved in the assay buffer was added in each well. After the incubation of 120 min at 37° C., fifteen μL of termination buffer (100 mmol/L HEPES, 40 mmol/L ethylenediaminetetraacetic acid (EDTA), 10 mmol/L magnesium chloride, 0.003 vol % Brij-35, 0.004 vol % Tween20, 1 mmol/L DTT and 0.16 vol % Coating Reagent 3) was added in each well to stop the enzyme reaction. Fluorescent intensities (FI) of phosphorylated and non-phosphorylated fluorescent substrates were measured by LabChip EZReader II (Caliper LifeSciences, Inc.), and conversion ratio (CR) was calculated by the following formula-1. The CR in the well applied with DMSO alone was used as a negative control and the CR in the well without applying TrkA was used as a positive control. The inhibitory effect of each compound on TrkA phosphorylation was calculated by the following formula-2. CR (%)=(FI of phosphorylated substrate/(FI of phosphorylated substrate+FI of non-phosphorylated substrate))×100 (Formula-1) Phosphorylation inhibition (%)=(1−(CR with compound treatment−CR of positive control)/(CR of negative control−CR of positive control))×100 (Formula-2) Inhibitory effect on TrkA phosphorylation (%)=(1−(CR in compound treated well−CR in positive control)/(CR in negative control−CR in positive control))×100.
The 50/o inhibitory concentration (IC50) was determined by the logistic regression using the inhibition data in 10 points at a range of 2 μmol/L to 0.1 nmol/L or 200 μmol/L to 10 nmol/L).

T1 sequence (P04629 33-796): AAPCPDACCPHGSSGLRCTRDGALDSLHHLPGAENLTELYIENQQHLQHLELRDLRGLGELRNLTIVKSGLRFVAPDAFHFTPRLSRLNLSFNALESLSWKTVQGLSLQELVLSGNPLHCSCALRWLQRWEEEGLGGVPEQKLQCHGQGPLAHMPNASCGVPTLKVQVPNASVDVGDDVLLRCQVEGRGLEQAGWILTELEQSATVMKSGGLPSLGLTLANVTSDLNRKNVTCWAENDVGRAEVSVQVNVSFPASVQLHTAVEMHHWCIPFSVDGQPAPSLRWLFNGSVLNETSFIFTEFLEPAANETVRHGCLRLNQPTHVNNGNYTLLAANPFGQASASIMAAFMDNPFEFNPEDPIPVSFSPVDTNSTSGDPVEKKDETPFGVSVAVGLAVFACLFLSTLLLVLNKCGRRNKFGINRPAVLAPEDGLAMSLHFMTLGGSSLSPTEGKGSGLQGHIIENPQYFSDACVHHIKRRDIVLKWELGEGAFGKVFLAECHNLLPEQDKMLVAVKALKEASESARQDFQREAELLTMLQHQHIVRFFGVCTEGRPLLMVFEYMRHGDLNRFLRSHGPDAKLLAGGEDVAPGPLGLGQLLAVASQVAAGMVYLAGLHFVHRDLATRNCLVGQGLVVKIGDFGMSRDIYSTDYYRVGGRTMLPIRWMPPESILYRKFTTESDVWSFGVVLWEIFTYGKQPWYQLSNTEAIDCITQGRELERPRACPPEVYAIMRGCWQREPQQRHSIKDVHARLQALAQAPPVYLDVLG

Compound	IC50
COCC[C@@H]1C[C@@H](NC(=O)Nc2c(C)c(-c3cnn(C)c3)nn2-c2ccccc2)[C@](O)(c2ccccc2)C1 [Compound I-273]	> 1000 nM

same assay, conditions: human TrkA 1 nmol/L, 120 min at 37° C., read-out: TrkA inhibition IC50

Compound	IC50
Cc1c(-c2cnn(C)c2)nn(-c2ccccc2)c1NC(=O)N[C@@H]1C[C@@H](Oc2ccncc2)C[C@H]1c1ccccc1 (racemic) [Compound I-225]	120 nM
COCC[C@@H]1C[C@@H](NC(=O)Nc2c(C)c(C3=CCN(C(C)=O)CC3)nn2-c2ccccc2)[C@H](c2ccccc2)C1 [Compound I-270]	0.67 nM
COCC(CO)[C@@H]1C[C@@H](NC(=O)Nc2c(C)c(-c3cnn(C)c3)nn2-c2ccccc2)[C@H](c2ccccc2)C1 (some centres unmarked) [Compound I-239]	76 nM
Cc1c(-c2cnn(C)c2)nn(-c2ccccc2)c1NC(=O)N[C@@H]1CN(CCOC(F)F)C[C@H]1c1ccccc1 (racemic) [Compound I-248]	18 nM
Cc1c(-c2cnn(C)c2)nn(-c2ccccc2)c1NC(=O)N[C@@H]1CN(CCOC2CC2)C[C@H]1c1ccnc(F)c1 (racemic) [Compound I-267]	24 nM
COCCN1C[C@@H](NC(=O)Nc2c(C)c(-c3cnn(C)c3)nn2-c2ccccc2)[C@H](c2ccc3nonc3c2)C1 (racemic) [Compound I-209]	10 nM
COCCC1C[C@@H](NC(=O)Nc2c3c(nn2-c2ccccc2)CCC3)[C@H](c2ccccc2)C1 (some centres unmarked) [Compound I-184]	47 nM

same assay, conditions: human TrkA inhibition, class symbols A/B/C, read-out: IC50_nM

Compound	IC50
COCC[C@@H]1C[C@@H](NC(=O)Nc2c(C)c(C3=CCNCC3)nn2-c2ccccc2)[C@H](c2ccc(F)c(F)c2)N1C [Compound I-258]	< 100 nM
CO[C@@H]1C[C@H](NC(=O)Nc2c(C)c(-c3cnn(C)c3)nn2-c2ccccc2)[C@@H](c2ccccc2)C1 (racemic) [Compound I-233]	> 1000 nM
COCCN1C[C@@H](NC(=O)Nc2c(C)c(-c3cnn(C)c3)nn2-c2ccccc2)[C@H](c2ccccc2)[C@H]1CF [Compound I-251]	100 to 1000 nM
Cc1c(-c2cnn(C)c2)nn(-c2ccccc2)c1NC(=O)N[C@@H]1CC(C)C[C@H]1c1ccc(F)c(F)c1 (some centres unmarked) [Compound I-163]	100 to 1000 nM
COCC[C@@H]1C[C@@H](NC(=O)Nc2c(C)c(C3=CCN(C(=O)OC(C)(C)C)CC3)nn2-c2ccccc2)[C@H](c2ccc(F)c(F)c2)N1C [Compound I-259]	< 100 nM
COCC[C@@H]1C[C@@H](NC(=O)Nc2c(C)c(-c3cnn(C)c3)nn2-c2ccccc2)[C@H](c2ccc(F)c(F)c2)N1 [Compound I-208]	< 100 nM
COCC[C@@H]1C[C@@H](NC(=O)Nc2c(C)c(-c3cnn(C)c3)nn2-c2ccccc2)[C@H](c2ccccc2)N1 [Compound I-242]	100 to 1000 nM
COCCC1C[C@@H](NC(=O)Nc2c(C)c(-c3cnn(C)c3)nn2-c2ccccc2)[C@H](c2ccc(F)c(F)c2)N1CC(=O)OC (some centres unmarked) [Compound I-198]	> 1000 nM
CCO[C@@H]1C[C@@H](NC(=O)Nc2c(C)c(-c3cnn(C)c3)nn2-c2ccccc2)[C@H](c2ccccc2)C1 (racemic) [Compound I-211]	> 1000 nM
COCC[C@@H]1C[C@@H](NC(=O)Nc2c(C)c(C3=CCNCC3)nn2-c2ccccc2)[C@H](c2ccccc2)C1 [Compound I-266]	< 100 nM
COCC(O)[C@H]1C[C@@H](NC(=O)Nc2c(C)c(-c3cnn(C)c3)nn2-c2ccccc2)[C@H](c2ccc(F)c(F)c2)N1 (some centres unmarked) [Compound I-215]	100 to 1000 nM
COCCC1C[C@@H](NC(=O)Nc2c(C)c(-c3cnn(C)c3)nn2-c2ccccc2)[C@H](c2ccc(O)cc2)C1 (some centres unmarked) [Compound I-222]	< 100 nM
COCCC1C[C@@H](NC(=O)Nc2cc(-c3cnc(C)nc3)nn2C)[C@H](c2ccccc2)C1 (some centres unmarked) [Compound I-219]	> 1000 nM
C=C[C@@H]1C[C@@H](NC(=O)Nc2c(C)c(-c3cnn(C)c3)nn2-c2ccccc2)[C@H](c2ccc(F)c(F)c2)N1 [Compound I-224]	100 to 1000 nM
COCC[C@@H]1C[C@@H](NC(=O)Nc2c(C)c(-c3ccc(C(=O)OC(C)(C)C)cc3)nn2-c2ccccc2)[C@H](c2ccc(F)c(F)c2)N1C [Compound I-236]	< 100 nM
COCCC1C[C@@H](NC(=O)Nc2c(C)c(-c3cnn(C)c3)nn2-c2ccccc2)[C@H](c2ccc(F)c(F)c2)N1CC#N (some centres unmarked) [Compound I-179]	100 to 1000 nM

Compound	IC50
COCC[C@@H]1C[C@@H](NC(=O)Nc2c(C)c(-c3ccc(C(=O)O)cc3)nn2-c2ccccc2)[C@H](c2ccc(F)c(F)c2)N1 [Compound I-260]	< 100 nM
Cc1c(-c2cnn(C)c2)nn(-c2ccccc2)c1NC(=O)N[C@@H]1C[C@@H](Oc2ccccn2)C[C@H]1c1ccccc1 (racemic) [Compound I-223]	> 1000 nM
CNC(=O)c1ccc(-c2cc(NC(=O)N[C@@H]3CC(CCOC)C[C@H]3c3ccccc3)n(C)n2)cc1 (some centres unmarked) [Compound I-200]	> 1000 nM
CCOC(=O)C(COC)[C@@H]1C[C@@H](NC(=O)Nc2c(C)c(-c3cnn(C)c3)nn2-c2ccccc2)[C@H](c2ccccc2)C1 (mixture of isomers) [Compound I-238]	> 1000 nM
COCCN1C[C@@H](NC(=O)Nc2c(C)c(-c3cnn(C)c3)nn2-c2ccccc2)[C@H](c2ccnc(C3=NC(=O)CS3)c2)C1 (racemic) [Compound I-195]	> 1000 nM
COCC(OC)[C@H]1C[C@@H](NC(=O)Nc2c(C)c(-c3cnn(C)c3)nn2-c2ccccc2)[C@H](c2ccc(F)c(F)c2)N1C (some centres unmarked) [Compound I-231]	> 1000 nM
COCCN1C[C@@H](NC(=O)Nc2c(C)c(-c3cnn(C)c3)nn2-c2ccccc2)[C@H](c2ccnc(OC)c2)C1 (racemic) [Compound I-228]	100 to 1000 nM
COC(=O)C(c1ccco1)N1C[C@@H](NC(=O)Nc2c(C)c(-c3cnn(C)c3)nn2-c2ccccc2)[C@H](c2ccc(F)c(F)c2)C1 (some centres unmarked) [Compound I-177]	100 to 1000 nM
COCCC1C[C@@H](NC(=O)Nc2cc(-c3ccc(C(=O)OC)cc3)nn2C)[C@H](c2ccccc2)C1 (relative stereo) [Compound I-181]	> 1000 nM
COCCC1C[C@@H](NC(=O)Nc2c(C)c(-c3ccnc(C)c3)nn2-c2ccccc2)[C@H](c2ccccc2)C1 (some centres unmarked) [Compound I-234]	< 100 nM
COCCC1C[C@H](NC(=O)Nc2c(C)c(-c3cnn(C)c3)nn2-c2ccccc2)[C@@H](c2ccccc2)C1 (some centres unmarked) [Compound I-213]	100 to 1000 nM
Cc1c(-c2cnn(C)c2)nn(-c2ccccc2)c1NC(=O)N[C@@H]1CN(Cc2csc(Cl)n2)C[C@H]1c1ccc(F)c(F)c1 [Compound I-204]	< 100 nM
COCCN1C[C@@H](NC(=O)Nc2c(C)c(-c3cnn(C)c3)nn2-c2ccccc2)[C@H](c2cccc(C=O)c2)C1 (racemic) [Compound I-230]	100 to 1000 nM
Cc1c(-c2cnn(C)c2)nn(-c2ccccc2)c1NC(=O)N[C@@H]1CN(CCOC(C)C)C[C@H]1c1ccc(F)c(F)c1 [Compound I-217]	< 100 nM
CO[C@@H]1C[C@@H](NC(=O)Nc2c(C)c(-c3cnn(C)c3)nn2-c2ccccc2)[C@H](c2ccccc2)C1 (racemic) [Compound I-210]	100 to 1000 nM

biological target: T1, human TrkA; assay: Test Example 2: Human TrkA Inhibition Assay; format: biochemical; conditions: not given
In short: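 Mobility-shift kinase assay: 90 min reaction at room temperature, stopped with EDTA buffer; phosphorylated and non-phosphorylated fluorescent substrate measured, conversion ratio calculated. Inhibition % normalised between DMSO-only wells and no-TrkA wells.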

Compound	IC50
Cc1c(-c2cnn(C)c2)nn(-c2ccccc2)c1NC(=O)N[C@H]1[C@H](c2ccc(F)c(F)c2)[C@@H]2CC[C@H]1N2Cc1csnn1 (racemic) [Compound I-71]	300 nM

same assay, conditions: human TrkA inhibition, Test Example 2; class symbols A/B/C; read-out: IC50_nM

Compound	IC50
COCCN1C[C@@H](NC(=O)Nc2c(C)c(-c3cnn(C)c3)nn2-c2ccccc2)[C@H](c2cc3ccccc3o2)C1 (racemic) [Compound I-134]	100 to 1000 nM
COCCN1C[C@@H](NC(=O)Nc2c(C)c(-c3cnn(C)c3)nn2-c2ccccc2)[C@H](c2cccc(-c3ccccc3)c2)C1 (racemic) [Compound I-48]	< 100 nM
CCN1[C@@H]2CC[C@H]1[C@@H](c1ccc(F)c(F)c1)[C@@H]2NC(=O)Nc1c(C)c(-c2cnn(C)c2)nn1-c1ccccc1 (racemic) [Compound I-69]	> 1000 nM
COCC(CNOC)N1C[C@@H](NC(=O)Nc2c(C)c(-c3cnn(C)c3)nn2-c2ccccc2)[C@H](c2ccc(F)c(F)c2)C1 (some centres unmarked) [Compound I-113]	100 to 1000 nM
Cc1c(-c2cnn(C)c2)nn(-c2ccccc2)c1NC(=O)N[C@@H]1CN(S(C)(=O)=O)C[C@H]1c1ccc(F)c(F)c1 [Compound I-45]	> 1000 nM
COCC(=O)N1C[C@@H](NC(=O)Nc2c(C)c(-c3cnn(C)c3)nn2-c2ccccc2)[C@H](c2ccc(F)c(F)c2)C1 [Compound I-26]	> 1000 nM
COC1CC2(C1)C[C@@H](NC(=O)Nc1c(C)c(-c3cnn(C)c3)nn1-c1ccccc1)[C@H](c1ccccc1)C2 (mixture of isomers) [Compound I-170]	> 1000 nM
